Assay results reported in ChEMBL document CHEMBL1141471, “Implications for selectivity of 3,4-diarylquinolinones as p38alphaMAP kinase inhibitors” (Bioorg Med Chem Lett, 2008).
Blank lines part the entries; values can stand above or below the compound they belong to.

Experiments:
[1] = target: T1, Mitogen-activated protein kinase 14 (Homo sapiens, UniProt Q16539); experiment: Inhibition of p38alpha assessed as residual activity at 10 uM relative to control
[2] = target: T2, Mitogen-activated protein kinase 12 (Homo sapiens) (UniProt P53778); experiment: Residual activity of p38-gamma at 10 uM relative to control; format: functional
T2 sequence (whole entry): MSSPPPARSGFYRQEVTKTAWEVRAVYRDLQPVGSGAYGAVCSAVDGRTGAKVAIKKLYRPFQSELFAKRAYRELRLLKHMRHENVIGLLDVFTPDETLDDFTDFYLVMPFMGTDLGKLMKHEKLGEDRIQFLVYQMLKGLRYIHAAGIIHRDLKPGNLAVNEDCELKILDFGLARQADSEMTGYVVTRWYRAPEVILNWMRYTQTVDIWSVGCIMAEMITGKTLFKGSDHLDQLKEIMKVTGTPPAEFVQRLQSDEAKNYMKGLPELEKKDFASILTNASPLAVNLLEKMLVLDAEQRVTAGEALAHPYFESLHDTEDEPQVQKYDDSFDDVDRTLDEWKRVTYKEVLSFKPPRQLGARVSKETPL

[3] = target: T3, Mitogen-activated protein kinase 9 (Homo sapiens, UniProt P45984); experiment: Residual activity of JNK2 at 10 uM relative to control
Target sequence in this assay (P45984 whole entry, looked up): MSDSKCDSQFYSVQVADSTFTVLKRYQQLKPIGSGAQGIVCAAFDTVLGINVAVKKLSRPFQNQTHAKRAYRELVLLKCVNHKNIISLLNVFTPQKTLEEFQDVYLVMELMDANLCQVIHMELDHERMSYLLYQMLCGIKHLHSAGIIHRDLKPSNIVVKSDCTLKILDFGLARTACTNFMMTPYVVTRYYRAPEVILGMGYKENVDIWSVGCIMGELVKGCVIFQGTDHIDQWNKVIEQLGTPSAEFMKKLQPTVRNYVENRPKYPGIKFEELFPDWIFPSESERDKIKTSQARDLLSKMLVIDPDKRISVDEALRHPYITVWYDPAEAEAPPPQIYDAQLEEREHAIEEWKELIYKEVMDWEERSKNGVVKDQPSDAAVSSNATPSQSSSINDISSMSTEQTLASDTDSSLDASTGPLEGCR

[4] = target: Mitogen-activated protein kinase 10 (Homo sapiens) (UniProt P53779); experiment: Residual activity of JNK3 at 10 uM relative to control
[5] = target: Mitogen-activated protein kinase 11 (Homo sapiens) (UniProt Q15759); experiment: Residual activity of p38beta at 10 uM relative to control
[6] = target: T4, Mitogen-activated protein kinase 15 (Homo sapiens) (UniProt Q8TD08); experiment: Residual activity of ERK8 at 10 uM relative to control
T4 sequence (whole entry): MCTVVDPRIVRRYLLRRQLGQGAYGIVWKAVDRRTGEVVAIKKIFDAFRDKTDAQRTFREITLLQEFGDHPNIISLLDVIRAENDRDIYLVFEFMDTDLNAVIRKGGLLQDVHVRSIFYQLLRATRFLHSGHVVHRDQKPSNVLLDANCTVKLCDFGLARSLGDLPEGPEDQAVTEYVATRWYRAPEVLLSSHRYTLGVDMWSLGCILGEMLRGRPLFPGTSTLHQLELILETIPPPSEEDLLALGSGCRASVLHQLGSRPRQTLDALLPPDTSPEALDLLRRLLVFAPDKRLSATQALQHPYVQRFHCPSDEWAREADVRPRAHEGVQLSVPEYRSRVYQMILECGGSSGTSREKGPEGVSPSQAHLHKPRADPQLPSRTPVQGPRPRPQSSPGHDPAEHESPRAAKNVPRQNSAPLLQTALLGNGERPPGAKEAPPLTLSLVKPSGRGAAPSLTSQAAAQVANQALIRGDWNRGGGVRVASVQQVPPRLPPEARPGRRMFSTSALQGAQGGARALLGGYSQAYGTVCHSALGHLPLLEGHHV

[7] = target: Mitogen-activated protein kinase 8 (Homo sapiens) (UniProt P45983); experiment: Residual activity of JNK1 at 10 uM relative to control
[8] = target: T3, Mitogen-activated protein kinase 9; experiment: Inhibition of JNK2
Target sequence in this assay (P45984 whole entry): as the sequence (P45984 whole entry, looked up) above

[9] = target: T5, Mitogen-activated protein kinase 13 (Homo sapiens) (UniProt O15264); experiment: Residual activity of p38delta at 10 uM relative to control
T5 sequence (whole entry): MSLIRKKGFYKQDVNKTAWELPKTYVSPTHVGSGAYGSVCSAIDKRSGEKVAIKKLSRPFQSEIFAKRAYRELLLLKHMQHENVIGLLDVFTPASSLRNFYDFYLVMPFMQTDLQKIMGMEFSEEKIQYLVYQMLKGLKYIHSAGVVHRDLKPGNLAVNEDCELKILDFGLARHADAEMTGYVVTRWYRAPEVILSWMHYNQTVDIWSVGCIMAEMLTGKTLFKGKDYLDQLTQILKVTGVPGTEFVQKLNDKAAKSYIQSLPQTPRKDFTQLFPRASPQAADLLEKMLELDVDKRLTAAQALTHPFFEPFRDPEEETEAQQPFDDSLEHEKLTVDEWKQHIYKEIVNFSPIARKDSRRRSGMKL

[10] = target: T6, Serine/threonine-protein kinase D1 (Homo sapiens) (UniProt Q15139); experiment: Inhibition of PKD1; values are per cent of control
T6 sequence (whole entry): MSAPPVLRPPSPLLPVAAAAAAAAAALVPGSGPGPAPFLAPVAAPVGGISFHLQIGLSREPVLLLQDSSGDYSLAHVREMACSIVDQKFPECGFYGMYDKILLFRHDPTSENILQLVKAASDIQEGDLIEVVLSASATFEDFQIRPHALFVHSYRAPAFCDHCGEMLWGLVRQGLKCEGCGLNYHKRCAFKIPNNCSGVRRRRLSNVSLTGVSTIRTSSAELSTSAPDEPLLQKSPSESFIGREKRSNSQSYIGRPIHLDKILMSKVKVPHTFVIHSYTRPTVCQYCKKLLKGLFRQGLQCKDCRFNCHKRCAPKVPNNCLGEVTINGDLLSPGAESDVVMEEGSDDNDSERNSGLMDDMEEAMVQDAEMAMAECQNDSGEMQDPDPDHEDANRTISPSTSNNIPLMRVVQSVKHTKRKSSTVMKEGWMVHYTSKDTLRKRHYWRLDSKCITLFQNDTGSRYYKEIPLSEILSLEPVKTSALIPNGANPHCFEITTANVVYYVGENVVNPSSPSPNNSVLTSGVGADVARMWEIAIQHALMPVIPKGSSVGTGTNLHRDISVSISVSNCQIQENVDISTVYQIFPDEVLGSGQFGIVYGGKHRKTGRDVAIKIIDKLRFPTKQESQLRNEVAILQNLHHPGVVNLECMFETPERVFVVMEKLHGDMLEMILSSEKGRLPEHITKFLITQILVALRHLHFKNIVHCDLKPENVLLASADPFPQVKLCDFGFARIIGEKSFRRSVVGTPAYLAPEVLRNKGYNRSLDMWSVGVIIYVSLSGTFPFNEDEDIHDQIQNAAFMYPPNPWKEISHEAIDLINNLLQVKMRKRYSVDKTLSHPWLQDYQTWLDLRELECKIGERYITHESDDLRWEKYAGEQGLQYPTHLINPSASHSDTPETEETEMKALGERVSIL

[11] = Inhibition of PKA; values are per cent of control
[12] = target: Mitogen-activated protein kinase 1 (Homo sapiens) (UniProt P28482); experiment: Residual activity of ERK2 at 10 uM relative to control
[13] = target: Tyrosine-protein kinase Lck (Homo sapiens) (UniProt P06239); experiment: Inhibition of Lck; values are per cent of control
[14] = target: Mitogen-activated protein kinase 3 (Homo sapiens) (UniProt P27361); experiment: Inhibition of ERK1 assessed as residual activity at 10 uM relative to control
[15] = target: Aurora kinase B (Homo sapiens) (UniProt Q96GD4); experiment: Inhibition of Aurora B; values are per cent of control
[16] = Inhibition of Aurora C; values are per cent of control
[17] = target: T1, Mitogen-activated protein kinase 14; experiment: Inhibition of p38alpha

Chain of Mitogen-activated protein kinase 3 (Homo sapiens) (P27361 whole entry): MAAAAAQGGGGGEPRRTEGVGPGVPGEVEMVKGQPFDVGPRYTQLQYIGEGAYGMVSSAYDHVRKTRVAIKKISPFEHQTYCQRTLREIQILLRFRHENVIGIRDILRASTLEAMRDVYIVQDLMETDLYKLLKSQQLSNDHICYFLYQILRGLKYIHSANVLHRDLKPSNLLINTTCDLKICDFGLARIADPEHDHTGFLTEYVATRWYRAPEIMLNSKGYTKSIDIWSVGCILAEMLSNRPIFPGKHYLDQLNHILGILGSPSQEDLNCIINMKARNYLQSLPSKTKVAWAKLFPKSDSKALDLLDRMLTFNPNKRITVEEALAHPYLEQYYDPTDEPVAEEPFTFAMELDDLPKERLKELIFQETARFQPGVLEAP
Chain of Mitogen-activated protein kinase 11 (Homo sapiens) (Q15759 whole entry): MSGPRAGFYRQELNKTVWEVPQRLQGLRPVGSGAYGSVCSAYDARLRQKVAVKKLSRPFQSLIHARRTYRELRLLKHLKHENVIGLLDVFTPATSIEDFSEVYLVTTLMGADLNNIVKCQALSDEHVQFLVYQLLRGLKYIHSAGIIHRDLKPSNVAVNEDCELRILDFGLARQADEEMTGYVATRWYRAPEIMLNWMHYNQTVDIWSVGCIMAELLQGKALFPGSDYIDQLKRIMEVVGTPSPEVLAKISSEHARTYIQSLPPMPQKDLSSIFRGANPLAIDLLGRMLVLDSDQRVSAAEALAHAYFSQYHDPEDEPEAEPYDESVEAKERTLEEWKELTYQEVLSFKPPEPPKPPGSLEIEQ
Chain of Mitogen-activated protein kinase 8 (Homo sapiens) (P45983 whole entry): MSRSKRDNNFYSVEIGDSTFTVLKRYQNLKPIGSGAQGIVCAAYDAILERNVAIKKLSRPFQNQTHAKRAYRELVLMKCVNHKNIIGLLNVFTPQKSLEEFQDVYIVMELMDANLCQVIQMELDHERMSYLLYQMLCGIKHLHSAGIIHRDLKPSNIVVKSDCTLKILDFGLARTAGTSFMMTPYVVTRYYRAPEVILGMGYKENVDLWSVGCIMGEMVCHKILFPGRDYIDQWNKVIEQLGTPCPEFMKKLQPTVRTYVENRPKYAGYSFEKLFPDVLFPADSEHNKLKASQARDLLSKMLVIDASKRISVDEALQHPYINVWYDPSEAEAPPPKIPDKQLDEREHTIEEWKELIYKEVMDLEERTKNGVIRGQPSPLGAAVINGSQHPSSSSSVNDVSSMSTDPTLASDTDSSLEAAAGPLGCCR
Chain of Mitogen-activated protein kinase 10 (Homo sapiens) (P53779 whole entry): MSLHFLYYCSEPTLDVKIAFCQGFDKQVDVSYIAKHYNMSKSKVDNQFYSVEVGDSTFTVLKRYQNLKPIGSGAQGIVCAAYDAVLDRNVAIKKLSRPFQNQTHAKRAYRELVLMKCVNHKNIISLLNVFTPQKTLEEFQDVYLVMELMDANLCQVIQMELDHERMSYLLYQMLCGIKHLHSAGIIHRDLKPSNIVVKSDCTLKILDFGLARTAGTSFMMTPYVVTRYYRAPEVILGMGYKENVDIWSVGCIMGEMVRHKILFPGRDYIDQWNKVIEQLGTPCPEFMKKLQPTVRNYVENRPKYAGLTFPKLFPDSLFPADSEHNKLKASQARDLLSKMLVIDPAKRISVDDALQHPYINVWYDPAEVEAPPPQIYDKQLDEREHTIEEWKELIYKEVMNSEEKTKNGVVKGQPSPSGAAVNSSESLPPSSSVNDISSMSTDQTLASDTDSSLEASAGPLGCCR
Chain of Mitogen-activated protein kinase 1 (Homo sapiens) (P28482 whole entry): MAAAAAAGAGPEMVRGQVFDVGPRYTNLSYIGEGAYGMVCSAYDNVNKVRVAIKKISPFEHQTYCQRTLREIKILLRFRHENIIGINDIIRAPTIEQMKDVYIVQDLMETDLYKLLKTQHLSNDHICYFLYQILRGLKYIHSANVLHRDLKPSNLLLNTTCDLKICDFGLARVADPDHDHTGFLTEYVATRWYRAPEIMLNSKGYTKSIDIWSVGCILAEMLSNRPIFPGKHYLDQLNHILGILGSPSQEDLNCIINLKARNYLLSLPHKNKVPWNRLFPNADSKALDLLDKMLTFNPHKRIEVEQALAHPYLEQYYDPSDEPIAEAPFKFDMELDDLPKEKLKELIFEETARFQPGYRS
T1 sequence (Q16539 whole entry): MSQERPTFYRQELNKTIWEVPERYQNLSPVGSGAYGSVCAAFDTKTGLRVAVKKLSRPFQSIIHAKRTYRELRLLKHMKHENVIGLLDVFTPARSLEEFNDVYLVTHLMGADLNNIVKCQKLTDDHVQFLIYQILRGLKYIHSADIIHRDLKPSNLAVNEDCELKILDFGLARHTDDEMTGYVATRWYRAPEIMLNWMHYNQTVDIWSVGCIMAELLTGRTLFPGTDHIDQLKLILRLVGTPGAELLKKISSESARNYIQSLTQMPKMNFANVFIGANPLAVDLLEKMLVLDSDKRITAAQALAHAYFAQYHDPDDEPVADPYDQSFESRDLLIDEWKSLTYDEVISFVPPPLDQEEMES
Chain of Tyrosine-protein kinase Lck (Homo sapiens) (P06239 2-509 limits assumed): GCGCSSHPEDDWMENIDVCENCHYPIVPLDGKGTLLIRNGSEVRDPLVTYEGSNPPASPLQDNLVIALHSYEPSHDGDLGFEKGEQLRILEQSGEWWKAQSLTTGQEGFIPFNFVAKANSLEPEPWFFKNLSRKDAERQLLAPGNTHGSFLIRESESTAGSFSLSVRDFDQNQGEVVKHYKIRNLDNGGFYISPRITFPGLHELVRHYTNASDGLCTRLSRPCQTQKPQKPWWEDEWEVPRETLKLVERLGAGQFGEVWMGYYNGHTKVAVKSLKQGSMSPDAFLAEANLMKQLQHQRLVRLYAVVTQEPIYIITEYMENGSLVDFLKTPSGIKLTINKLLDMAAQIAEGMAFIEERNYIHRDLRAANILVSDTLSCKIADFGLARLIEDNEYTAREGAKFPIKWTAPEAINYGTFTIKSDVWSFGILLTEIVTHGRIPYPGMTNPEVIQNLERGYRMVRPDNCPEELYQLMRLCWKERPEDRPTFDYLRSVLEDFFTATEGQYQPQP
Chain of Aurora kinase B (Homo sapiens) (Q96GD4 whole entry): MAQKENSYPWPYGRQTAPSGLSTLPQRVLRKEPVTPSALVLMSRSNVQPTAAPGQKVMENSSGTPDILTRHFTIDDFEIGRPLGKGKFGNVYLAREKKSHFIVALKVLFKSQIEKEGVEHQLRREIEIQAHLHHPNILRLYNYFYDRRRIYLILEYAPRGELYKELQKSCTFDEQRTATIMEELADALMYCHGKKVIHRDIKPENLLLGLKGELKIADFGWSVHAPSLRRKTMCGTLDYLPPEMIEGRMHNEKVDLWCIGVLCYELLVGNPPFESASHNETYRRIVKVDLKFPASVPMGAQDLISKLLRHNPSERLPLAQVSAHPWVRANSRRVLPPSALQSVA

Activity [1]: 80%
SMILES: CCC(O)C(O)n1c(=O)c(-c2ccccc2C)c(-c2ccncc2)c2ccccc21 (stereo not drawn)

IC50 [17]: 9.7 µM
SMILES: Cc1ccccc1-c1c(-c2ccncc2)c2ccccc2[nH]c1=O

Activity [1]: 64%
SMILES: O=c1[nH]c2ccccc2c(-c2ccccc2)c1-c1ccccc1

Activity [2]: 89%
Activity [1]: 53%
Activity [3]: 89%
Activity [4]: 106%
Activity [5]: 97%
Activity [7]: 86%
Activity [9]: 91%
Activity [12]: 93%
Activity [14]: 84%
SMILES: O=c1[nH]c2ccccc2c(-c2ccncc2)c1-c1ccc(F)cc1
Activity [6]: 73%

IC50 [17]: 2.2 µM
SMILES: CCn1c(=O)c(-c2ccc(F)cc2)c(-c2ccncc2)c2ccccc21

IC50 [17]: 5.2 µM
SMILES: Cn1c(=O)c(-c2ccc(F)cc2)c(-c2ccncc2)c2ccccc21

Activity [1]: 78%
SMILES: O=c1cc(-c2ccncc2)c2ccccc2[nH]1

Second part, the compound before the results:

SMILES: CC(C)c1onc(-c2ccc(F)cc2)c1-c1ccncc1
Activity [2]: 84%
Activity [1]: 20%
Activity [3]: 13%
Activity [4]: 28%
Activity [5]: 95%
Activity [6]: 84%
Activity [7]: 67%
IC50 [8]: 1.28 µM
Activity [9]: 86%
residual activity [10]: 60%
residual activity [11]: 28%
Activity [12]: 86%
residual activity [13]: 42%
Activity [14]: 92%

SMILES: CC(C)c1noc(-c2ccc(F)cc2)c1-c1ccncc1
Activity [2]: 94%
Activity [1]: 50%
residual activity [15]: 22%
Activity [3]: 59%
Activity [4]: 63%
residual activity [16]: 35%
Activity [5]: 98%
Activity [6]: 88%
Activity [7]: 98%
Activity [9]: 95%
Activity [12]: 88%
Activity [14]: 87%

SMILES: CC#Cn1c(=O)c(-c2ccc(F)cc2)c(-c2ccncc2)c2ccccc21
IC50 [17]: 3.1 µM

SMILES: CC1(C)OCC(Cn2c(=O)c(-c3ccc(F)cc3)c(-c3ccncc3)c3ccccc32)O1 (stereo not drawn)
Activity [1]: 55%

SMILES: CCC(O)C(O)n1c(=O)c(-c2ccc(F)cc2)c(-c2ccncc2)c2ccccc21 (stereo not drawn)
Activity [1]: 57%

SMILES: O=c1c(-c2ccc(F)cc2)c(-c2ccncc2)c2ccccc2n1CCc1ccccc1
IC50 [17]: 8.2 µM

SMILES: CCOc1nc2ccccc2c(-c2ccncc2)c1-c1ccc(F)cc1
Activity [1]: 66%

SMILES: CC#COc1nc2ccccc2c(-c2ccncc2)c1-c1ccc(F)cc1
Activity [1]: 79%
